Patent US12606543B2, “Indole derivatives as serotonergic agents useful for the treatment of disorders related thereto” (priority 2023, dated 2026)

How the values were obtained:
human 5-HT2C receptor = target: T1, human 5-HT2C receptor (Homo sapiens, UniProt P28335); assay: cell-based; conditions: calcium mobilization FLIPR; for Emax (% of serotonin): U2OS cells, relative to maximum response of serotonin; for EC50: stably transfected U2OS cells
T1 construct: expressed in transfected cells; host or cells: U2OS
T1 sequence (P28335 33-458): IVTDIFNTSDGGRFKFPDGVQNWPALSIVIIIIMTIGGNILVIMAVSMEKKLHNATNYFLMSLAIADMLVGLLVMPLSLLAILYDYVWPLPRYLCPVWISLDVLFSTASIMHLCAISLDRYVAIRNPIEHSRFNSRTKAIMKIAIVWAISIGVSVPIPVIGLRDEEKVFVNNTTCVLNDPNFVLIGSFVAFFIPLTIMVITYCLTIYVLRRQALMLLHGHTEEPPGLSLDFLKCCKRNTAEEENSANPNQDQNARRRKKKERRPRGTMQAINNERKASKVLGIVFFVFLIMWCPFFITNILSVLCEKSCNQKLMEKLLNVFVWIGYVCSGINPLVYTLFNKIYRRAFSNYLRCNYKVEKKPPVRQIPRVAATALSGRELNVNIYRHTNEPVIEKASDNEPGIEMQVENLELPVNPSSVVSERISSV

[1] = Plasma protein binding by equilibrium dialysis, dog; assay type: in vitro ADME; conditions: for recovery at 6 h, 1 µM / fraction unbound at 6 h, 1 μM: Beagle; for recovery at 6 h, 1 µM: dog; for fraction unbound at 6 h, 1 μM: read-out: % Bound (converted)
Procedure: The final concentration of compound was 1 μM. The final concentration of DMSO was 0.5%. Ketoconazole was used as positive control in the assay.
The assay was performed in duplicate.
All calculations were carried out using Microsoft Excel. […] The percentages of bound compound were calculated as follows: […]
Ketoconazole was used as positive control in the assay.

[2] = Plasma protein binding by equilibrium dialysis, rat; conditions: for recovery at 6 h, 1 µM / fraction unbound at 6 h, 1 μM: rat; for fraction unbound at 6 h, 1 μM: plasma
Procedure: 1. The Frozen Plasma (Stored at −80° C.) was Thawed Immediately in a 37° C. Water Bath.
(§1) The working solution of test compounds and control compound was prepared in DMSO at the concentration of 200 μM, and then the working solution was spiked into plasma. The final concentration of compound was 1 μM. The final concentration of DMSO was 0.5%. Ketoconazole was used as positive control in the assay.
The dialysis membranes were soaked in ultrapure water for 60 minutes to separate strips, then in 20% ethanol for 20 minutes, finally in dialysis buffer for 20 minutes.
The dialysis set up was assembled according to the manufacturer's instruction. Each Cell was with 150 μL of plasma sample and dialyzed against equal volume of dialysis buffer (PBS). The assay was performed in duplicate. The dialysis plate was sealed and incubated in an incubator at 37° C. with 5% CO2 at 100 rpm for 6 hours. At the end of incubation, 50 μL of samples from both buffer and plasma chambers were transferred to wells of a 96-well plate.
50 μL of plasma was added to each buffer samples and an equal volume of PBS was supplemented to the collected plasma sample. 400 μL of precipitation buffer acetonitrile containing internal standards (IS, 200 nM labetalol, 100 nM tolbutamide and 100 nM ketoprofen) was added to precipitate protein and release compounds. Samples were vortexed for 2 minutes and centrifuged for 30 minutes at 3,220 g. Aliquot of 50 μL of the supernatant was diluted by 150 μL acetonitrile containing internal standards: ultra-pure H2O=1:1, and the mixture was used for LC-MS/MS analysis.
All calculations were carried out using Microsoft Excel. The concentrations of test compounds in the buffer and plasma chambers were determined from peak area ratios. The percentages of bound compound were calculated as follows: […]
as §1, with “[…].” for “μM.”

[3] = dog plasma, equilibrium dialysis, 37° C., 6 hours

Row | SMILES | Emax (% of serotonin) (human 5-HT2C receptor) | EC50 (human 5-HT2C receptor) [nM] | recovery at 6 h, 1 µM ([1]; Dog plasma, 1 μM, equilibrium dialysis 6 hours) [%] | fraction unbound at 6 h, 1 μM ([1]; Dog plasma, 1 μM, equilibrium dialysis 6 hours, 37° C.) | % Remaining @ 6 hours ([1]; Dog plasma, 1 μM, 6 hours, 37° C.) [%] | % Remaining @ 6 hours ([2]; Rat plasma, 1 μM, 37° C.) [%] | recovery at 6 h, 1 µM ([2]; SD) [%] | fraction unbound at 6 h, 1 μM ([2]; Sprague-Dawley) | recovery at 6 h, 1 µM [1, 3] [%] | fraction unbound at 6 h, 1 μM [1, 3] | % Remaining @ 6 hours ([1]; dog plasma, 6 hours) [%] | fraction unbound at 6 h, 1 μM ([2]; SD) | recovery at 6 h, 1 µM ([2]; Sprague-Dawley (SD)) [%] | % Remaining @ 6 hours ([2]; rat plasma) [%]
1 | CSc1ccc2[nH]cc(C[C@H]3CCCN3C)c2c1 [(R) I-1, (R)-3-((1-Methylpyrrolidin-2-yl)methyl)-5-(methylthio)-1H-indole] | 95.27 % of serotonin | 0.6 | 92.9 | 0.174 | 95.50 | 105.76 | 103 | 0.534 | – | – | – | – | – | –
2 | COCCN1CCC[C@@H]1Cc1c[nH]c2ccc(OC)cc12 [(R) I-98, (R)-5-Methoxy-3-((1-(2-methoxyethyl)pyrrolidin-2-yl)methyl)-1H-indole] | 95.23 % of serotonin | 6.51 | – | – | – | – | – | – | 104 | 0.157 | 110.92 | 0.569 | 88 | 96.55
3 | [2H]C([2H])(c1c[nH]c2ccc(OCCCCCN3C(=O)c4ccccc4C3=O)cc12)[C@H]1CCCN1C([2H])([2H])[2H] [(R) I-245, (R)-2-(5-((3-((1-(Methyl-d3)pyrrolidin-2-yl)methyl-d2)-1H-indol-5-yl)oxy)pentyl)isoindoline-1,3-dione] | 83.29 % of serotonin | 42.3 | – | – | – | – | – | – | – | – | – | – | – | –
4 | [2H]C([2H])(c1c[nH]c2ccc(OCCCCCN3C(=O)[C@H]4CCCC[C@H]4C3=O)cc12)[C@H]1CCCN1C([2H])([2H])[2H] [Cis (R) I-248, 2-(5-((3-(((R)-1-(Methyl-d3)pyrrolidin-2-yl)methyl-d2)-1H-indol-5-yl)oxy)pentyl)hexahydro-1H-isoindole-1,3(2H)-dione] | 89.99 % of serotonin | 151 | – | – | – | – | – | – | – | – | – | – | – | –
5 | [2H]C([2H])(c1c[nH]c2ccc(OCCCCN3C(=O)c4ccccc4C3=O)cc12)[C@H]1CCCN1C([2H])([2H])[2H] [(R) I-244, (R)-2-(4-((3-((1-(Methyl-d3)pyrrolidin-2-yl)methyl-d2)-1H-indol-5-yl)oxy)butyl)isoindoline-1,3-dione] | 87.27 % of serotonin | 2.53 | – | – | – | – | – | – | 94.6 | 0.0281 | 94.07 | 0.19 | 86.5 | 85.45
